Data reported in the COVID Moonshot data (paper PMC11187573), “Identification of SARS-CoV-2 Mpro inhibitors through deep reinforcement learning for de novo drug design and computational chemistry approaches” (RSC Medicinal Chemistry, 2024).

How the values were obtained:
[1] = target: SARS-CoV-2 Main Protease (SARS-CoV-2) (UniProt P0DTD1)
[2] = target: SARS-CoV-2 Main Protease (SARS-CoV-2) (UniProt P0DTD1); remark: listed apart in the source

| Compound | inhibition ([1]; 20.0 µM) [%] | inhibition ([2]; 20.0 µM) [%] | inhibition ([2]; 50.0 µM) [%] | relative solubility at 20 uM | relative solubility at 100 uM | inhibition ([1]; 50.0 µM) [%] | IC50 [1] [µM] | IC50 [2] [µM] |
| --- | --- | --- | --- | --- | --- | --- | --- | --- |
| C=CC(=O)N(c1ccc2ncsc2c1)C(C(=O)Nc1ccc(OC)cc1C)c1cccnc1 (stereo unspecified) | 0 | 3.21 | 11.3 | 0.94 | 0.92 |  |  |  |
| O=C(Nc1cccnc1)c1cc(Cl)ccc1-c1ccccc1 | 2.13 | 47.4 | 60.4 | 1 | 0.97 |  |  |  |
| C=CC(=O)N(c1ccc(C(C)(C)C)cc1)C(C(=O)NC1CCCCC1)c1cccnc1 (stereo unspecified) | 0 | 13.3 | 17.8 | 0.99 | 1 | 18.6 |  |  |
| Cc1ccc(NC(=O)C(C#N)C(=O)CC(C)C)cc1 (stereo unspecified) | 3.11 |  | 21.5 | 0.99 | 1 | 0 |  |  |
| Cc1ccncc1NC(=O)C1C2CCOCC21 (stereo unspecified) |  | -18.9 | -10.8 | 1 | 1 | 0 |  |  |
| N#Cc1cccc(CN2CCN(C(=O)CCl)CC2)c1 | 64.3 | 53.4 | 85.2 | 1.01 | 0.99 |  | 12.2 |  |
| C=CC(=O)N(c1ccc(N(C)C)c(C)c1)C(C(=O)Nc1ccc(Cl)cc1)c1cccnc1 (stereo unspecified) | 0 | 4.26 | 12.1 | 0.88 | 0.78 |  |  |  |
| O=C(c1cc(=O)[nH]c2ccc(F)cc12)N1CCN(S(=O)(=O)c2ccccc2)CC1 |  | 3.84 | 11.9 | 0.98 | 0.98 | 16.2 |  |  |
| N#Cc1ccc(NC(=O)Nc2cccnc2)cc1 | 0 | 5.82 | 11.6 | 1 | 1 |  |  |  |
| COC1(CC(=O)Nc2cnccc2C)CC1 |  | -5.47 | 13.8 | 1.01 | 1 | 0 |  |  |
| CC(=O)Nc1ccc(NCC(=O)Nc2cnccc2C)cc1 |  | -2.21 | -24.3 | 0.96 | 0.9 | 0 |  |  |
| N#Cc1cccc(NC(=O)Nc2cncc(N)c2)c1 | 9.09 |  | 57.2 | 1 | 1 | 48.4 |  |  |
| CC(C)[C@@H](C#N)NS(=O)(=O)c1ccc(CF)cc1 (stereo in doubt) | 1.55 |  | -14 | 1 | 1 | 22.1 |  |  |
| Cc1cc(C)c(C)c(S(=O)(=O)N2CCN(C(=O)c3cc(=O)[nH]c4ccccc34)CC2)c1C | 81.7 | 84.4 | 92.9 | 0.75 | 0.65 | 88.1 | 3.75 |  |
| N#CC(C(=O)Nc1cccc(Cl)c1)C(=O)c1cccs1 (stereo unspecified) | 0 |  | 31.8 | 1 | 1 | 0 |  |  |
| Cc1[nH]c2ccccc2c1/C=N/N(C)C(=O)c1ccc2c(c1)OCO2 |  | 2.2 | -13.4 | 0.78 | 0.77 | -6.66 |  |  |
| C=CC(=O)N1CCN(S(=O)(=O)c2ccccc2-c2ccc(Nc3ccc(C#N)cn3)cc2)CC1 |  | -11.3 | -6.3 | 0.75 | 0.61 | 0 |  |  |
| CC1CN(Cc2ccccc2NC(=O)NCc2cnsc2)CC(C)O1 (stereo unspecified) | 0 | 1.48 | 4.44 | 1 | 0.98 | 1.33 |  |  |
| CCC(CC)C(=O)C(C#N)C(=O)Nc1ccc(F)cc1 (stereo unspecified) | 0 |  | -16.2 | 1 | 1 | 0 |  |  |

| Compound | inhibition ([1]; 20.0 µM) [%] | inhibition ([2]; 20.0 µM) [%] | inhibition ([2]; 50.0 µM) [%] | relative solubility at 20 uM | relative solubility at 100 uM | inhibition ([1]; 50.0 µM) [%] | IC50 [1] [µM] | IC50 [2] [µM] |
| --- | --- | --- | --- | --- | --- | --- | --- | --- |
| O=C(CC(=O)N1CCOCC1)Nc1ccccc1 | 0 |  | -26.9 | 1 | 1.01 | 0 |  |  |
| C=CC(=O)N(c1ccc2cc[nH]c2c1)C(C(=O)NC(C)(C)C)c1cccnc1 (stereo unspecified) | 0 | 5.38 | 10.5 | 0.84 | 0.93 |  |  |  |
| COc1ccccc1OCCNC(=O)c1cc(=O)[nH]c2ccccc12 | 70.1 | 83.7 | 92.7 | 0.99 | 0.96 | 83.8 | 3.46 | 7.23 |
| O=C(CCl)N1CCC(c2nc(-c3cccnc3)nc3ccccc23)CC1 |  | 56.8 | 71.5 | 0.92 | 0.8 | 100 | 14.9 |  |
| CCOc1ccccc1/C=C1/C(=O)NC(=O)c2ccccc21 |  | -36.4 | 4.82 | 0.97 | 0.68 | 39.6 |  |  |
| CCn1c(=O)n(CC(=O)NCc2cnccn2)c2ccccc21 | 0 | 1.73 | 6.74 | 1 | 1 | 0 |  |  |
| O=C(Cc1cccc(Cl)c1)Nc1nnn[nH]1 |  | 23.3 | 49.1 | 1 | 1 | 27.2 |  |  |
| NS(=O)(=O)c1ccc(N2CCC(c3ccncc3)CC2)cc1 | 1.05 | 0.875 | 1.65 | 1 | 0.94 | 1.84 |  |  |
| C=CC(=O)N(c1ccc(C2CCOC2)cc1)C(C(=O)NC(C)(C)C)c1cccnc1 (stereo unspecified) | 0 | -11.9 | 4.28 | 1.01 | 1.01 |  |  |  |
| C=CC(=O)N(c1ccc(C(C)(C)C)cc1)C(C(=O)NC(C)(C)C)c1cccnc1C (stereo unspecified) | 0 | -1.34 | 2.24 | 0.99 | 0.99 | 0 |  |  |
| NS(=O)(=O)c1ccc(N2CCC(Nc3ccc(F)cc3)CC2)cc1 | 3.79 |  | 8.08 | 1 | 0.89 | 50.2 | 39.2 |  |
| COc1ccc2c(c1)CN(C(=O)CCl)C(c1ccccc1)C2 (stereo unspecified) |  | 97.4 | 97.5 | 0.98 | 0.96 | 100 | 1.78 |  |
| O=C(Cc1cccnc1)NCc1ccccc1 |  | 1.31 | 7.29 | 1 | 1 | 13 |  |  |
| O=C(CCl)N1CCN(S(=O)(=O)c2ccsc2)CC1 | 96.4 | 78.6 | 73.7 | 1 | 1 |  | 0.484 | 1.63 |
| O=S(=O)(CCc1ccccc1)Nc1cccnc1 |  | -0.803 | -32.5 | 0.98 | 0.99 | 17.2 |  |  |
| CC(=O)N1CCN(Cc2cccc(C#N)c2)CC1 | 0 | -0.339 | 6.59 | 1 | 0.99 |  |  |  |
| Cc1ccncc1NC(=O)Cc1ccc2[nH]ccc2c1 |  | 2.86 | -2.33 | 1 | 1 | 0 |  |  |
| NS(=O)(=O)c1ccc(N2CCC([C@@H]3CCCO3)CC2)cc1 (stereo in doubt) | 35 |  | -16 | 0.99 | 1 | 52.2 |  |  |
